Test [1] concerns subjects suffering from muscle pain exacerbated by ROS and/or inflammatory cytokines. Description: Inhibition of muscle pain, self-rated pain scale 1 to 10 (Example 3). The settings on record: effective dose, after several weeks of treatment; groups of 10 subjects; vs placebo. It is filed as in vivo, human. As for the experimental part: Subjects suffering from muscle pain exacerbated by ROS and/or inflammatory cytokines are identified. The subjects are asked to rate their pain on a scale of 1 to 10, with 1 indicating no pain or mild pain and 10 indicating severe pain. The subjects are then separated into 11 groups of 10 subjects each. […] Subjects in Group 11 are administered a placebo. After several weeks of treatment, subjects are again asked to rate their pain using the scale above.

Test [2] has as its system patient suffering from Acute Myelogenous Leukemia (AML) and fibromyalgia. The settings on record: given with IL-2, subcutaneously two times per day, 0.5 mg per injection, 21-day cycles repeated for 18 months with 21-day intermissions. As for the experimental part:
A patient, suffering from Acute Myelogenous Leukemia (AML) and fibromyalgia received treatment with histamine dihydrochloride and IL-2. Histamine dihydrochloride was administered subcutaneously two times per day at a dosage of 0.5 mg per injection for a period of 21 consecutive days.
The above 21-day cycle was repeated for 18 months with 21-day intermissions between cycles.

For test [3], the system named is patient with amyotrophic lateral sclerosis. The settings on record: orally 1 mg/day for six months. As to the method:
A patient with amyotrophic lateral sclerosis received treatment with histamine dihydrochloride. Histamine dihydrochloride was administered orally at a dosage of 1 mg/day for a period of six months.

In test [4] the target is membrane bound non-mitochondrial oxidase of stimulated phagocytes (Homo sapiens, UniProt P04839). The note with it: substrate of the oxidase that converts oxygen to superoxide; cited from earlier work.
Test [5] has as its system individuals suffering from multiple sclerosis. The note with it: orally 10, 30, 50, 100, 200 and 1,000 mg; vs placebo.
Description: Individuals suffering from multiple sclerosis are identified. The individuals are asked to fill out a questionnaire regarding commonly experienced symptoms experienced by MS patients as well as the rate and severity of each symptom. The individuals are then separated into 7 groups of 20 individuals. […] Individuals in Group 7 are administered a placebo. Following the course of treatment, the individuals are again asked to fill out the same questionnaire.

Data on six compounds can be found in patent US20060002913A1, “Use of histamine and related compounds to treat disorders affecting muscle function” (priority 2004, published 2006).

`NCCc1c[nH]cn1.O=P(O)(O)O` [histamine phosphate]: in test [1], the “muscle pain, self-rated on a scale of 1 to 10” value (“muscle pain, self-rated” below) is recorded as “reduction in muscle pain”.

With `NCCc1c[nH]c2ccc(O)cc12` [serotonin], the “muscle pain, self-rated” value in test [1] was “reduction in muscle pain”.

`Cl.Cl.NCCc1c[nH]cn1` [histamine dihydrochloride]: in test [1], the “muscle pain, self-rated” value is given as “reduction in muscle pain”. For the same compound, in test [2], the “patient's symptoms (fibromyalgia muscle pain)” value is “symptoms disappeared while on treatment and returned during intermissions”. The “progression of ALS” value in test [3] is “arrested”.

Consider `NC(=O)C1=CN([C@@H]2O[C@H](COP(=O)(O)OP(=O)(O)OC[C@H]3O[C@@H](n4cnc5c(N)ncnc54)[C@H](OP(=O)(O)O)[C@@H]3O)[C@@H](O)[C@H]2O)C=CC1` [NADPH], for which the Km (in general, the substrate concentration at which the rate is half of its maximum) in test [4] was 45 µM.

`NC(=O)C1=CN([C@@H]2O[C@H](COP(=O)(O)OP(=O)(O)OC[C@H]3O[C@@H](n4cnc5c(N)ncnc54)[C@H](O)[C@@H]3O)[C@@H](O)[C@H]2O)C=CC1` [NADH]: the Michaelis-Menten constant (Km) in test [4] is 450 µM.

Consider `NCCc1c[nH]cn1` [histamine], for which the “muscle pain, self-rated” value in test [1] is “reduction in muscle pain”. Also, the “rate and severity of symptoms associated with muscle damage (questionnaire)” value in test [5] is “decrease in both the rate and severity of symptoms associated with muscle damage”.
